Measured values as given in US7153650B2, “Marker system for preparing and characterizing high-quality human embryonic stem cells” (Geron Corporation, priority 2003, dated 2006).
Marks after values point to notes of the source that are not given here.

Test system: hES cells
Experiment: Quantitative RT-PCR analysis of gene expression in hESC differentiation (culture with RA or DMSO)
Type: cell-based, human
Conditions: for Fold Change, 130 kDa leucine-rich protein (LRP 130) mRNA / Fold Change, Bone marrow stromal antigen 2 (BST-2) mRNA / Fold Change, Bone morphogenetic protein receptor, type Ia (BMPR1A) (ALK-3) mRNA / Fold Change, EST (GA_28053, T24677) / Fold Change, Early development regulator 1 (polyhomeotic 1 homolog) (EDR1) mRNA / Fold Change, Ephrin type-a receptor 1 (EPHA1) mRNA / Fold Change, FLJ31267 (acetylglucosaminyltransferase-like protein) mRNA / Fold Change, Fibroblast growth factor receptor 3 precursor (FGFR-3) mRNA / Fold Change, Forkhead box h1 (FOXH1) mRNA / Fold Change, Forkhead box o1a (foxo1a) mRNA / Fold Change, Gamma-aminobutyric acid (GABA) A receptor, beta 3 mRNA / Fold Change, Gastrin-releasing peptide receptor (GRP-R) mRNA / Fold Change, Glypican-2 (cerebroglycan) mRNA / Fold Change, Hypothetical protein BC018070 mRNA / Fold Change, Hypothetical protein FLJ14549 mRNA / Fold Change, Kallmann syndrome 1 sequence (KAL1) mRNA / Fold Change, Krab-zinc finger protein SZF1-1 mRNA / Fold Change, Left-right determination, factor b (LEFTB) mRNA / Fold Change, Nell2 (NEL-like protein 2) mRNA / Fold Change, Notch 1 (N1) mRNA / Fold Change, Octamer-binding transcription factor 3a (OCT-3A) (OCT-4) mRNA / Fold Change, Podocalyxin-like (PODXL) mRNA / Fold Change, Potassium channel subfamily k member 5 (TASK-2) mRNA / Fold Change, Protein tyrosine phosphatase, receptor-type, z polypeptide 1 (PTPRZ1) mRNA / Fold Change, Roundabout, axon guidance receptor, homolog 1 (ROBO1) mRNA / Fold Change, Sal-like 1 (SALL1) mRNA / Fold Change, Secreted phosphoprotein 1 (osteopontin) mRNA / Fold Change, Solute carrier family 6, member 8 (SLC6A8) mRNA / Fold Change, Telomerase reverse transcriptase (TERT) mRNA / Fold Change, Teratocarcinoma-derived growth factor 1 (CRIPTO) mRNA / Fold Change, Thy-1 co-transcribed mRNA / Fold Change, Zic family member 3 (ZIC3) mRNA / Fold Change, Zinc finger protein of cerebellum ZIC2 mRNA / Fold Change, Zinc finger protein, HSAL2 mRNA / Fold Change, Pr domain containing 14 (PRDM14) mRNA: hES cells cultured 1 week with 500 nM RA or 0.5% DMSO; for Fold Change, Pr domain containing 14 (PRDM14) mRNA: normalised to 18S rRNA, 2^-ddCT
Protocol: To verify the expression patterns of particular genes of interest at the mRNA level, extracts of undifferentiated hES cells and their differentiated progeny were assayed by real-time PCR. Cells were cultured for 1 week with 0.5% dimethyl sulfoxide (DMSO) or 500 nM retinoic acid (RA). The samples were amplified using sequence-specific primers, and the rate of amplification was correlated with the expression level of each gene in the cell population.
Taqman™ RT-PCR was performed under the following conditions: 1×RT Master Mix (ABI), 300 nM for each primer, and 80 nM of probe, and 10 pg to 100 ng of total RNA in nuclease-free water. The reaction was conducted under default RT-PCR conditions of 48° C. hold for 30 min, 95° C. hold for 10 min, and 40 cycles of 95° C. at 15 sec and 60° C. hold for 1 min. RNA was isolated by a guanidinium isothiocyanate method (RNAeasy™ kit, Qiagen) according to manufacturer's instructions, and subsequently DNAse treated (DNAfree™ kit, Ambion). Gene-specific primers and probes were designed by PrimerExpress™ software (Ver. 1.5, ABI). Probe oligonucleotides were synthesized with the fluorescent indicators 6-carboxyfluorescein (FAM) and 6-carboxy-tetramethylrhodamine (TAMRA) at the 5′ and 3′ ends, respectively. Relative quantitation of gene expression between multiple samples was achieved by normalization against endogenous 18S ribosomal RNA (primer and probe from ABI) using the ΔΔCT method of quantitation (ABI). Fold change in expression level was calculated as 2^−ΔΔCT.
Since the cells have been cultured in RA and DMSO for a short period, they are at the early stages of differentiation, and the difference in expression level is less dramatic than it would be after further differentiation. Of particular interest for following or modulating the differentiation process are markers that show modified expression within the first week of differentiation by more than 2-fold (*), 5-fold (**), 10-fold (***), or 100-fold (****).
KALL and EPHAL were not tested.

[1] = H9 hES cells after culturing for 7 days with RA or DM (FIG. 1)

| Structure (SMILES) | Fold Change, 130 kDa leucine-rich protein (LRP 130) mRNA [fold] | Fold Change, Bone marrow stromal antigen 2 (BST-2) mRNA [fold] | Fold Change, Bone morphogenetic protein receptor, type Ia (BMPR1A) (ALK-3) mRNA [fold] | Fold Change, EST (GA_28053, T24677) | Fold Change, Early development regulator 1 (polyhomeotic 1 homolog) (EDR1) mRNA [fold] | Fold Change, Ephrin type-a receptor 1 (EPHA1) mRNA [fold] | Fold Change, FLJ31267 (acetylglucosaminyltransferase-like protein) mRNA [fold] | Fold Change, Fibroblast growth factor receptor 3 precursor (FGFR-3) mRNA [fold] | Fold Change, Forkhead box h1 (FOXH1) mRNA [fold] | Fold Change, Forkhead box o1a (foxo1a) mRNA [fold] | Fold Change, Gamma-aminobutyric acid (GABA) A receptor, beta 3 mRNA [fold] | Fold Change, Gastrin-releasing peptide receptor (GRP-R) mRNA [fold] | Fold Change, Glypican-2 (cerebroglycan) mRNA [fold] | Fold Change, Hypothetical protein BC018070 mRNA [fold] | Fold Change, Hypothetical protein FLJ14549 mRNA [fold] | Fold Change, Kallmann syndrome 1 sequence (KAL1) mRNA [fold] | Fold Change, Krab-zinc finger protein SZF1-1 mRNA [fold] | Fold Change, Left-right determination, factor b (LEFTB) mRNA [fold] | Fold Change, Nell2 (NEL-like protein 2) mRNA [fold] | Fold Change, Notch 1 (N1) mRNA [fold] | also measured |
| --- | --- | --- | --- | --- | --- | --- | --- | --- | --- | --- | --- | --- | --- | --- | --- | --- | --- | --- | --- | --- | --- |
| C[S+](C)[O-] [DMSO, dimethyl sulfoxide] | −1.9 | −1.9 | −2.4 | <−100* fold | −5.6 | −1.9 | −4.5 | 2.3 | −5.6 | −2.9 | −5.6 | −9.1 | −1.2 | −10.0 | −10.0 | −2.5 | −3.1 | −25.0 | −1.3 | 1.0 | Gene expression of ICAM in differentiated cells [1]: below the limit of detection; Gene expression of rhodopsin in differentiated cells [1]: below the limit of detection; Fold Change, Octamer-binding transcription factor 3a (OCT-3A) (OCT-4) mRNA: −7.7 fold; Fold Change, Podocalyxin-like (PODXL) mRNA: −4.3 fold; Fold Change, Potassium channel subfamily k member 5 (TASK-2) mRNA: 1.0 fold; Fold Change, Protein tyrosine phosphatase, receptor-type, z polypeptide 1 (PTPRZ1) mRNA: −3.3 fold; Fold Change, Roundabout, axon guidance receptor, homolog 1 (ROBO1) mRNA: 1.0 fold; Fold Change, Sal-like 1 (SALL1) mRNA: −1.3 fold; Fold Change, Secreted phosphoprotein 1 (osteopontin) mRNA: −10.0 fold; Fold Change, Solute carrier family 6, member 8 (SLC6A8) mRNA: −1.1 fold; Fold Change, Telomerase reverse transcriptase (TERT) mRNA: −2.3 fold; Fold Change, Teratocarcinoma-derived growth factor 1 (CRIPTO) mRNA: −12.5 fold; Fold Change, Thy-1 co-transcribed mRNA: −11.1 fold; Fold Change, Zic family member 3 (ZIC3) mRNA: −5.3 fold; Fold Change, Zinc finger protein of cerebellum ZIC2 mRNA: −2.9 fold; Fold Change, Zinc finger protein, HSAL2 mRNA: −2.8 fold; Fold Change, Pr domain containing 14 (PRDM14) mRNA: −8.3 fold |
| CC1=C(/C=C/C(C)=C/C=C/C(C)=C/C(=O)O)C(C)(C)CCC1 [RA, retinoic acid] | −1.9 | 1.1 | −2.4 | <−100* fold | −1.8 | −1.3 | −2.3 | 1.5 | −1.8 | −1.6 | −2.8 | −6.3 | −1.5 | −3.2 | −2.3 | −1.1 | −1.8 | −16.7 | −1.3 | 1.3 | Fold Change, Octamer-binding transcription factor 3a (OCT-3A) (OCT-4) mRNA: −3.7 fold; Fold Change, Podocalyxin-like (PODXL) mRNA: −2.6 fold; Fold Change, Potassium channel subfamily k member 5 (TASK-2) mRNA: −1.6 fold; Fold Change, Protein tyrosine phosphatase, receptor-type, z polypeptide 1 (PTPRZ1) mRNA: −1.7 fold; Fold Change, Roundabout, axon guidance receptor, homolog 1 (ROBO1) mRNA: 1.1 fold; Fold Change, Sal-like 1 (SALL1) mRNA: 1.4 fold; Fold Change, Secreted phosphoprotein 1 (osteopontin) mRNA: −3.8 fold; Fold Change, Solute carrier family 6, member 8 (SLC6A8) mRNA: −1.1 fold; Fold Change, Telomerase reverse transcriptase (TERT) mRNA: −2.1 fold; Fold Change, Teratocarcinoma-derived growth factor 1 (CRIPTO) mRNA: −4.0 fold; Fold Change, Thy-1 co-transcribed mRNA: −12.5 fold; Fold Change, Zic family member 3 (ZIC3) mRNA: −1.7 fold; Fold Change, Zinc finger protein of cerebellum ZIC2 mRNA: 1.0 fold; Fold Change, Zinc finger protein, HSAL2 mRNA: −1.4 fold; Fold Change, Pr domain containing 14 (PRDM14) mRNA: −1.9 fold |
